How the values were obtained:
TSPO [1] = molecular target: T1, TSPO (Mus musculus, UniProt P50637); experiment: In vivo dynamic PET/MR whole-body biodistribution of [^18F]FEPPA in control and LPS-injected mice; set-up: species or system C57BL/6 mice
T1 construct: from tissue; host or cells: living C57BL6 mice: brain regions, heart, lung, liver, spleen, kidney, blood (in vivo PET/MR)
Procedure: (§1) The mice in the LPS group (6 mice for each dose) were intraperitoneally injected with a single dose of 0.625, 1.25, 2.5 or 5 mg/kg LPS (Escherichia coli, strain O111:B4; Calbiochem, San Diego, CA, USA) to induce systemic inflammation. The control group were intraperitoneally injected with 0.9% NaCl. In vivo or in vitro assessments were performed 24 h after administration of LPS.
Before PET/MR imaging acquisition, the mice were anesthetized by passive inhalation of a mixture of isoflurane and oxygen (5% isoflurane for induction and 2% for maintenance). A fiber-optic temperature probe was inserted into the rectum to monitor the core temperature of the mice, then each animal was gently positioned in the MR cradle and the MRI coil was secured around the head. A warm water blanket was positioned to maintain the core temperature of the animals, then the mice were positioned inside the scanner. The depth of anesthesia, pulse and respiration were monitored constantly during the imaging procedure; in the unlikely event that an animal regained consciousness, the scanning was immediately stopped and the animal was removed from the scanner, humanely euthanized and eliminated from the study.
(§2) The animals (n = 6 per dose of LPS; n = 6 controls) were injected with [^18F]FEPPA (10.09 ± 1.38 MBq; […]) via the tail vein. Dynamic PET images were obtained using a 7 T PETMR Inline (Bruker, Rheinstetten, Germany) for 30 min with the energy window set to 350–650 keV. Images were acquired every 1 s for 10 images, 10 s for five images, 60 s for nine images, 300 s for two images and 600 s for 1 image; a total of 27 frames were collected.
(§3) The PET images were reconstructed through three-dimensional ordered-subset expectation maximization (3D-OSEM). The regional radioactivity concentration (KBq/cc) of [^18F]FEPPA was estimated based on the mean pixel values within the volumes of interest (VOI) corresponding to MR images of various regions of the brain. Image data were decay-corrected to the injection time. The radioactivity concentration (KBq/cc) of the VOI was converted to the standard uptake value (SUV), and the mean and standard error of the mean (SEM) radiotracer accumulation values were calculated for various tissues. PET/MR data were analyzed using PMOD 4.0 software (PMOD Technologies Ltd., Zurich, Switzerland).

TSPO [2] = molecular target: T1, TSPO; experiment: In vivo PET/MR brain region-specific uptake and pharmacokinetics (SUV, VT by Logan graphical analysis, AUC); set-up: species or system C57BL/6 mice; conditions: for Brain [^18F]FEPPA uptake vs LPS dose: 24 h after injection
Procedure: as §1, §2
T1 and T2 MRI were performed to determine the anatomical structure of the brain. The MRI sequences included 0.5-mm thickness coronal T2 Turbo RARE high-resolution images (TR = 3455 ms, TE = 36 ms, matrix = 256 × 256, average = 8, slice number = 30).
as §3
The Logan graphical method for reversible uptake was used to assess whether [^18F]FEPPA PET/MRI [30] could be used to detect differences in the expression of TSPO. Cardiac blood was used as the reference tissue. The slope of the linear portion of the Logan plot represents the total distribution (VT). If metabolite-corrected plasma TACs are not available, a reference region TAC, Cp(t), can be used instead of the plasma TAC. Then, the slope of the linear portion of the plot can be calculated using (Eq. 1)1 ∫0tCTissueτdr/CTissuet=K∫0tCpτdr/CTissuet+V

[3] = Stability of final product (radiochemical purity by analytical HPLC); assay type: physicochemical; conditions: 6 h after the end of synthesis; manual and automated synthesis
Procedure: Radiochemical and chemical purity, stability and molar activity were assessed by analytical HPLC. The molar activity of the radiotracer was quantified by measuring the radioactivity injected and deriving the concentration of FEPPA in the sample by UV detection.
The identity of the labeled compound [^18F]FEPPA was confirmed by co-injection with a non-radioactive FEPPA standard. The concentration of FEPPA in the radioactive sample was obtained from the UV-peak area ratio for the radioactive product and the standard solution. Analytical HPLC was performed on a Nova-pak C18 column (300 × 3.9 mm, 4 μm) in 50 mM (NH4)H2PO4:CH3CN (1:1) at 1 mL/min using a Waters Corporation 2695 pump with a multi-wavelength 2489 UV Detector (Waters Corporation) in series with a Bioscan FC-4000 dual BGO coincidence detector (Bioscan, Inc., Washington, DC, USA). A delay time of 12 s was observed between the two detectors.

TSPO [4] = test system: TSPO; set-up: method as in PMID 18355686, PMID 24939192; conditions: higher affinity than [^11C]PK-11195; cited from earlier work
[5] = set-up: method as in PMID 29875332; conditions: cited from earlier work

- Increase of [^18F]FEPPA in heart, LPS-induced group vs control (TSPO [1]; LPS 5 mg/kg, 24 h): ~ 3 folds
- Increase of [^18F]FEPPA in lung, LPS-induced group vs control (TSPO [1]; LPS 5 mg/kg, 24 h): ~ 3 folds
- Accumulated radioactivity (SUV), Blood (TSPO [1]; LPS (5 mg/kg i.p., 24 h) mice): 1.29 ± 0.128 SUV
- Accumulated radioactivity (SUV), Heart muscle (TSPO [1]; LPS (5 mg/kg i.p., 24 h) mice): 3.60 ± 0.722 SUV
- Accumulated radioactivity (SUV), Kidney (TSPO [1]; LPS (5 mg/kg i.p., 24 h) mice): 5.86 ± 0.504 SUV
- Accumulated radioactivity (SUV), Liver (TSPO [1]; LPS (5 mg/kg i.p., 24 h) mice): 1.60 ± 0.097 SUV
- Accumulated radioactivity (SUV), Spleen (TSPO [1]; LPS (5 mg/kg i.p., 24 h) mice): 0.96 ± 0.443 SUV
- Accumulated radioactivity (SUV), Whole brain (TSPO [1]; LPS (5 mg/kg i.p., 24 h) mice): 0.76 ± 0.014 SUV
- Time of peak radioactivity in heart muscle (TSPO [1]; after injection): ≤ 3 min
- Time to steady state in heart muscle and lungs (TSPO [1]; after injection of [^18F]FEPPA): 10 min
- Blood clearance kinetics (TSPO [1]; control group, after i.v. injection): biexponential
- Accumulated radioactivity (SUV), Heart muscle (TSPO [1]; control mice): 1.24 ± 0.06 SUV
- Accumulated radioactivity (SUV), Kidney (TSPO [1]; control mice): 4.80 ± 0.57 SUV
- Accumulated radioactivity (SUV), Liver (TSPO [1]; control mice): 1.48 ± 0.36 SUV
- Accumulated radioactivity (SUV), Lung (TSPO [1]; control mice): 1.38 ± 0.08 SUV
- Accumulated radioactivity (SUV), Spleen (TSPO [1]; control mice): 1.16 ± 0.32 SUV
- Accumulated radioactivity (SUV), Whole brain (TSPO [1]; control mice): 0.48 ± 0.05 SUV
- Accumulated radioactivity (SUV), Blood (TSPO [1]; control mice, 30 min post-injection i.v.): 1.29 ± 0.03 SUV
- Time of peak accumulation in the lungs (TSPO [1]; post-injection): 1 to 2 min
- Brain [^18F]FEPPA uptake vs LPS dose (TSPO [2]; 5 mg/kg LPS): significantly higher uptake
- AUC (SUV·min, 0–30 min) ratio in brain, LPS vs control (TSPO [2]; LPS 5 mg/kg, 24 h): 1.58 ± 0.09 fold
- VT (Logan graphical analysis) in brain, LPS vs control (TSPO [2]; LPS 5 mg/kg, 24 h, average of brain regions, cardiac blood as reference): 1.25 ± 0.12 fold
- Average SUV ratio for all brain regions, LPS vs control (TSPO [2]; LPS 5 mg/kg, 24 h, brain): 1.61 ± 0.1 fold
- Brain [^18F]FEPPA uptake vs LPS dose (TSPO [2]; LPS dose ≦ 2.5 mg/kg): no significant difference
- Time of peak radioactivity in brain regions (TSPO [2]; control animals, followed by rapid washout): ≤ 3 min
- Radiochemical purity (stability of final product) [3]: more than 99%
SMILES: CC(=O)N(Cc1ccccc1OCC[18F])c1cnccc1Oc1ccccc1 [[^18F]FEPPA, [^18F]-N-(2-(2-fluoroethoxy)benzyl)-N-(4-phenoxypyridin-3-yl) acetamide]
- Affinity relative to [^11C]PK-11195 (TSPO [4]): 18 fold
- Parent fraction of unmetabolized [^18F]FEPPA in the brain (intact form) ([5]; 30 min after injection): approximately 95%
- Metabolite in plasma ([5]; 30 min imaging time-window): 60%

— PMC7966678, “GMP-compliant fully automated radiosynthesis of [^18F]FEPPA for PET/MRI imaging of regional brain TSPO expression” (EJNMMI Research, 2021)
